Results on ten compounds are retold here after PubChem BioAssay (NCI).

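Method: 48-hour compound exposure of cells in 96-well plates, five concentrations, linear interpolation of endpoints. GI50: concentration for 50% inhibition of growth. TGI is the concentration that stops growth completely.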

Common to all, as to test: growth of human tumour cells (NCI), 48 h
Test [1] relates to NCI-H522 lung.
For test [2], the system named is SNB-75 CNS.
Test [3] has as its system SF-539 CNS.
Test [4] relates to 786-0 renal.
Test [5] concerns U251 CNS.
Test [6] deals with IGROV1 ovarian.
Test [7] relates to A498 renal.
In test [8] the test system is EKVX NSCLC.
The subject of test [9] is NCI-H460 lung.
Test [10] has as its system SK-MEL-5 melanoma.

With `NN=C1/C(=C\c2ccccc2)CCC/C1=C/c1ccccc1`, the TGI is 36.1 µM in [1]; over 100 µM in [2]; over 100 µM in test [3]; over 100 µM in test [4]; over 100 µM in test [5]; over 100 µM in test [6]. In addition, the TGI in test [7] is 95.8 µM; in [8] it was 89.1 µM; in test [9], over 100 µM.
For `CCOC(=O)C1=C(C)N(NC(=O)Nc2ccccc2)C2(N)N(NC(=O)Nc3ccccc3)C(C)=C(C(=O)OCC)C12C#N` (centres undefined), the TGI worked out at 33.1 µM in test [1]; 36.6 µM in [2]; 32.4 µM in test [4]; 32.3 µM in test [5]; 36.6 µM in test [6]; 45 µM in [7]. Moreover, the TGI in test [9] came to 33.1 µM.
Take `CC1=C(\C=C/C(C)=C/C=C/C(C)=C/C=C/C=C(C)\C=C\C=C(C)/C=C/C2=C(C)CCCC2(C)C)C(C)(C)CCC1`: the TGI in [1], in [10], in test [2], in [4], in [5] and in test [6] was over 100 µM in each case. The TGI in [7] and in test [9] was over 100 µM throughout.
In the case of `O=C(CC1(O)C(=O)Nc2ccc(Cl)cc21)c1ccc(C(=O)NCC2CCC3(CC2)OOC2(CCCCC2)OO3)cc1` (centres undefined), the GI50 in [1] was 0.292 µM; in test [10], 1.75 µM; in test [2] it was 1.34 µM; in test [3], 1.63 µM; in test [4], 0.535 µM; in test [5], 1.64 µM. The GI50 was 0.482 µM in test [6], 10.2 µM in [7] and 1.59 µM in test [8]. For the same compound, the TGI in test [1] was determined as 1.37 µM; in test [10], 3.4 µM; in [2], 3.25 µM; in [3], 3.16 µM; in [4] it was 1.86 µM; in test [5], 3.39 µM. Also, the TGI in test [6] came to 2.89 µM; in [7] it was 28 µM; in [8] it was 4.3 µM.
`Nc1ncc(CN2CCCC2)c(-c2ccccc2O)n1`: the TGI in [1], in test [10], in [2], in test [3], in test [4] and in test [5] was over 750 µM throughout. Also, the TGI in test [6], in test [7] and in test [9] was over 750 µM in each case.
`CCCCCCCCCC(=O)Oc1ccc(/C(=C(/C)c2ccccc2)c2ccc(OCCN3CCCC3)cc2)cc1`: the GI50 in test [1] was 9.36 µM; in test [10] it was 8.13 µM; in [2], 6.56 µM; in [3] it was 8.7 µM; in test [4], 8.77 µM; in [5], 8.01 µM. The GI50 in test [6] was 8.67 µM; in test [8], 6.92 µM; in test [9] it was 8.46 µM. The TGI in test [1] stood at 18.4 µM; in [10], 14.9 µM; in test [2] it was 13.5 µM; in test [3], 16.9 µM; in [4] it was 16.8 µM; in test [5] it was 15.4 µM. The values for the TGI in test [6], in test [8] and in [9] were 19.5 µM, 13.6 µM and 15.9 µM, respectively.
Consider `O=C1c2ccccc2-c2cn(Cc3ccccc3)c3cccc(c23)C1c1cccnc1` (centres undefined), for which the GI50 in [1] is 2.28 µM; in [10] it was 2.42 µM; in [2], 1.38 µM; in [3], 5.67 µM; in [4], 5.78 µM; in [6] it was 3.41 µM. For the same compound, the results for the GI50 in [7], in test [8] and in [9] were 1.34 µM, 9.61 µM and 1.9 µM, respectively. The TGI in [1] was 33.4 µM; in test [10] it was 17.9 µM; in test [2] it was 26 µM; in [3] it was over 50 µM; in [4], over 50 µM; in [6], over 50 µM. In addition, the values for the TGI in test [7], in test [8] and in test [9] were 29.9 µM, over 50 µM and over 50 µM, respectively.
For `COc1cc(/C=N\Nc2ccccc2)ccc1OC(=O)c1ccccc1`, the GI50 in [1] was 1.02 µM; in test [10] it was 1.53 µM; in test [2], 12.8 µM; in [3], 0.486 µM; in test [4], 5.09 µM; in [5], 8.38 µM. Also, the GI50 is 2.76 µM in test [6], 20 µM in test [7] and 1.22 µM in test [9]. Besides, the TGI was over 76.6 µM in [1]; 18.9 µM in test [10]; 61.9 µM in test [2]; 2.22 µM in test [3]; over 100 µM in test [4]; 36.5 µM in test [5]. Moreover, the TGI in test [6] is over 100 µM; in test [7], over 92.9 µM; in test [9], over 46 µM.
Consider `COc1cccc(/C=C\C(=O)c2ccccc2)c1`, for which the GI50 in test [1] was 2.06 µM; in test [10], 9.4 µM; in [2], 8.9 µM; in test [3], 10.7 µM; in test [4], 15 µM; in [5] it was 2.77 µM. Besides, the GI50 in test [6] is 3.19 µM; in [7] it was 11.4 µM; in test [9], 4.02 µM. Further, the TGI is 4.62 µM in test [1]; 24.8 µM in [10]; 23 µM in test [2]; 24.1 µM in [3]; 34.2 µM in test [4]; 14.1 µM in [5]. In addition, the TGI in test [6] stood at 21.2 µM; in test [7], 26.2 µM; in [9], 22.3 µM.
Take `CC(=O)[CH-]C(=O)c1ccccc1.CC(=O)[CH-]C(=O)c1ccccc1.Cl.[O-]CCc1ccccn1.[O-]CCc1ccccn1.[Ti+4]`: the GI50 in test [1] is 27.8 µM; in test [10], 20 µM; in test [2], 23.9 µM; in test [3], 29.8 µM; in test [4] it was 21.2 µM; in [6] it was 27.2 µM. For the same compound, the GI50 was 28.8 µM in test [7] and 28.9 µM in test [8]. Besides, the TGI in test [1] was 70.6 µM; in [10], 53.6 µM; in test [2] it was 89.2 µM; in test [3], 88 µM; in test [4], 57 µM; in [6] it was 75.3 µM. For the same compound, the TGI in [7] was determined as 75.1 µM; in [8], 78.2 µM.
